{"source": "patent US12466807B2", "about": "“Salt and crystal form of a FAK inhibitor” (Amplia Therapeutics Limited, priority 2019, dated 2025)", "key": {"[1]": {"test": "IV pharmacokinetics in rats (reported previously)", "assay_type": "in vivo, male Sprague Dawley rats", "conditions": "IV 4.48 mg/kg, rat", "source_text": "(§1) [formula] • AUCIV Area under the plasma concentration versus time profile from time zero to infinity after IV administration (reported previously: CDCO_FAK_11_031) • t1/2 Elimination half-life • λ2 Terminal elimination rate constant after IV administration • BA Oral bioavailability • AUCoral Area under the plasma concentration versus time profile from time zero to infinity after oral administration • Cmax Maximum plasma concentration observed after oral administration. • Tmax Time to achieve Cmax • Differences in pharmacokinetic parameters (t½, AUC, Cmax, Tmax and BA) between free base and L-tartrate salt were evaluated using an unpaired t-test testing for significance at α=0.05 (GraphPad Prism, version 7.01)"}, "[2]": {"test": "Dynamic/gravimetric vapour sorption (DVS/GVS) hygroscopicity", "assay_type": "physicochemical", "conditions": "at 90% R.H., 25° C.", "protocol": "Approximately 10-20 mg of sample was placed into a mesh vapour sorption balance pan and loaded into the DVS-1 dynamic vapour sorption balance by Surface Measurement Systems. The sample was subjected to a ramping profile from 40-90% relative humidity (RH) at 10% increments, maintaining the sample at each step until a stable weight had been achieved (dm/dt 0.004%, minimum step length 30 minutes, maximum step length 500 minutes) at 25° C. After completion of the sorption cycle, the sample was dried using the same procedure to 0% RH and then a second sorption cycle back to 40% RH. Two cycles were performed. The weight change during the sorption/desorption cycles were plotted, allowing for the hygroscopic nature of the sample to be determined. XRPD analysis was then carried out on any solid retained.\nApproximately 10-20 mg of sample was placed into a mesh vapour sorption balance pan and loaded into an IGASorp Moisture Sorption Analyser balance by Hiden Analytical. The sample was subjected to a ramping profile from 40-90% relative humidity (RH) at 10% increments, maintaining the sample at each step until a stable weight had been achieved (98% step completion, minimum step length 30 minutes, maximum step length 60 minutes) at 25° C. After completion of the sorption cycle, the sample was dried using the same procedure to 0% RH, and finally taken back to the starting point of 40% RH. Two cycles were performed. The weight change during the sorption/desorption cycles were plotted, allowing for the hygroscopic nature of the sample to be determined."}, "[3]": {"test": "Thermodynamic solubility studies", "assay_type": "physicochemical", "conditions": "for solubility thermodynamic at 24 h: buffer, 22 °C, thermodynamic from solid; for HPLC Conc: ca. 22° C."}, "[4]": {"test": "Oral exposure (pharmacokinetics) in rats", "assay_type": "in vivo, male Sprague Dawley rats", "conditions": "rat", "protocol": "To compare the exposure of the compound of Formula I in male Sprague Dawley rats following oral administration of the free base and L-tartrate salt at a target dose of 20 mg/kg (as free base equivalent).\nFurther details of the in-life, formulation and bioanalytical procedures together with the data analysis, are described in Appendix 1.\nIn-Life • The exposure of Formula I was studied in overnight-fasted male Sprague Dawley rats that had access to water ad libitum throughout the pre- and post-dose sampling period, and access to food was re-instated 4 h post-dose. In-life details are provided in Table A1-1. • Samples of arterial blood and total urine were collected up to 48 h post-dose. Arterial blood was collected directly into borosilicate vials (at 4° C.) containing heparin, Complete® (a protease inhibitor cocktail) and potassium fluoride to minimise potential for ex vivo degradation of Formula I in blood/plasma samples. Once collected, blood samples were centrifuged, supernatant plasma was removed and stored frozen (−80° C.) until analysis by LC-MS.\nThe extraction of the test compound from plasma samples was conducted using protein precipitation with acetonitrile. Both solution and plasma standards were freshly prepared, with each set of standards comprising at least seven different analyte concentrations. Solution standards were diluted from a stock solution (1 mg/mL in DMSO) with 50% acetonitrile in water. Plasma standards were prepared by spiking blank plasma (50 μL) with solution standards (10 μL) and the internal standard, diazepam (10 μL, 5 μg/mL).\nPlasma samples were similarly prepared, except that blank acetonitrile (10 μL) was added instead of solution standards. Protein precipitation was carried out by the addition of acetonitrile (120 μL), vortexing (20 s) and centrifugation (10,000 rpm) in a microcentrifuge for 3 minutes. The supernatant was subsequently separated and 3 μL injected directly onto the column for LC/MS analysis using conditions tabulated below. All plasma concentrations are expressed as the non-salt equivalent.\nStandard Calculations • Plasma concentration versus time data were analysed using non-compartmental methods (PKSolver Version 2.0). Standard calculations for each pharmacokinetic parameter are listed below.\nas §1"}, "[5]": {"test": "Salt disproportionation studies", "assay_type": "physicochemical", "protocol": "Salt disproportionation studies were carried out as follows: • Approximately 10-20 mg of Formula I free base, L-tartrate Pattern 1 were weighed into HPLC vials. • 1 mL deionized water was then added to each vial and the vials capped and shaken at ambient temperature for 24 hours. • After this time, the samples were transferred to centrifuge tubes with nylon filters (0.22 μm) and centrifuged for approximately 15 minutes. The isolated solids were analyzed by XRPD and the filtrates analyzed by HPLC for concentration determination and the pH of all the filtrates were measured with a pH meter."}, "[6]": {"conditions": "PO 20 mg/kg (free base equivalent), mean ± SD, n = 3, 20 mg/kg"}}, "note": "Read-outs that look alike come from different tables or passages of the source.", "data": [{"smiles": "COc1cc(C2CCN(C)CC2)ccc1Nc1ncc(C(F)(F)F)c(CCc2ccccc2CC(N)=O)n1", "note": "[Formula I]", "values": [{"measurement": "% Dose in urine (unchanged Formula I)", "setting": "[1]; pooled urine up to 24 h", "value": 1.14, "unit": "%"}, {"measurement": "half-life", "setting": "[1]; male, Sprague Dawley, plasma, mean of n = 2, read-out: Apparent t1/2 (converted)", "value": 4.8, "unit": "h"}, {"measurement": "AUC(0-inf)", "setting": "[1]; male, Sprague Dawley, plasma, mean of n = 2, read-out: Plasma AUC0-inf", "value": 4.57, "unit": "µM·h"}]}, {"smiles": "COc1cc(C2CCN(C)CC2)ccc1Nc1ncc(C(F)(F)F)c(CCc2ccccc2CC(N)=O)n1", "note": "[Free base]", "values": [{"measurement": "Hygroscopicity, mass uptake (DVS/GVS)", "setting": "[2]", "value": "Uptake of 5 wt %"}, {"measurement": "Thermodynamic Solubility", "setting": "[3]; Water", "value": "<100", "unit": "µg/mL"}, {"measurement": "pH Post-24 h Slurry", "setting": "[3]; Water", "value": 5.63}, {"measurement": "solubility thermodynamic at 24 h", "setting": "[3]; pH 1, simulated gastric fluid, pH 1.0", "value": 300, "unit": "µg/mL"}, {"measurement": "solubility thermodynamic at 24 h", "setting": "[3]; pH 6.8, aqueous buffer, pH 6.8", "value": "< 100", "unit": "µg/mL"}, {"measurement": "pH Post-24 h Slurry", "setting": "[3]; pH 1.0", "value": 1.37}, {"measurement": "HPLC Conc", "setting": "[3]; pH 1.0, 24 h slurry", "value": 0.3, "unit": "mg/mL"}, {"measurement": "XRPD Result", "setting": "[3]; pH 1.0, solid after 24 h slurry, listed as Free Base", "value": "Possible HCl Salt"}, {"measurement": "XRPD Result", "setting": "[3]; pH 1.0, solid after 24 h slurry, listed as free base", "value": "possible HCl salt"}, {"measurement": "Thermodynamic Solubility", "setting": "[3]; pH 4.5", "value": 11900, "unit": "µg/mL"}, {"measurement": "pH Post-24 h Slurry", "setting": "[3]; pH 4.5", "value": 5.60}, {"measurement": "HPLC Conc", "setting": "[3]; pH 4.5, 24 h slurry", "value": 11.9, "unit": "mg/mL"}, {"measurement": "HPLC Conc", "setting": "[3]; pH 4.5, 24 h slurry, listed as Formula I free base", "value": 11.9, "unit": "mg/mL"}, {"measurement": "XRPD Result", "setting": "[3]; pH 4.5, solid after 24 h slurry", "value": "Free Base"}, {"measurement": "pH Post-24 h Slurry", "setting": "[3]; pH 6.8", "value": 7.44}, {"measurement": "HPLC Conc", "setting": "[3]; pH 6.8, 24 h slurry, listed as Free Base", "value": "<0.1", "unit": "mg/mL"}, {"measurement": "HPLC Conc", "setting": "[3]; pH 6.8, 24 h slurry, listed as free base", "value": "< 0.1", "unit": "mg/mL"}, {"measurement": "XRPD Result", "setting": "[3]; pH 6.8, solid after 24 h slurry", "value": "Alternate crystalline form"}, {"measurement": "XRPD Result", "setting": "[3]; pH 6.8, solid after 24 h slurry, listed as Formula I free base", "value": "change in XRPD pattern"}, {"measurement": "HPLC Conc", "setting": "[3]; water, 24 h slurry", "value": "<0.1", "unit": "mg/mL"}, {"measurement": "HPLC Conc", "setting": "[3]; water, 24 h slurry, listed as Formula I free base", "value": "< 0.1", "unit": "mg/mL"}, {"measurement": "XRPD Result", "setting": "[3]; water, solid after 24 h slurry", "value": "Free Base"}, {"measurement": "BA", "setting": "[4]; [6]", "value": "48.6 ± 9.2", "unit": "%"}, {"measurement": "Tmax", "setting": "[4]; [6]", "value": "5.0 ± 0.0", "unit": "h"}, {"measurement": "Adverse reactions or compound-related side effects", "setting": "[4]; PO 20 mg/kg, 48 h sampling period", "value": "No adverse reactions or compound-related side effects were observed"}, {"measurement": "% Dose in urine (unchanged Formula I)", "setting": "[4]; PO 20 mg/kg, pooled urine up to 48 h, 20 mg/kg", "value": "0.208 ± 0.24", "unit": "%"}, {"measurement": "Cmax", "setting": "[4]; male, Sprague Dawley, plasma, po, 20 mg/kg, PO 20 mg/kg (free base equivalent), mean ± SD, n = 3", "value": "934 ± 260", "unit": "nM"}, {"measurement": "half-life", "setting": "[4]; male, Sprague Dawley, plasma, po, 20 mg/kg, PO 20 mg/kg (free base equivalent), mean ± SD, n = 3, read-out: Apparent t1/2 (converted)", "value": "5.6 ± 0.1", "unit": "h"}, {"measurement": "AUC(0-inf)", "setting": "[4]; male, Sprague Dawley, plasma, po, 20 mg/kg, PO 20 mg/kg (free base equivalent), mean ± SD, n = 3, read-out: Plasma AUC0-inf", "value": "9.93 ± 1.9", "unit": "µM·h"}, {"measurement": "Tmax", "setting": "[4]; male, Sprague Dawley, plasma, po, 20 mg/kg, PO 20 mg/kg (free base equivalent), mean ± SD, n = 3, read-out: Tmax", "value": "5 to 7", "unit": "h"}, {"measurement": "N-demethylation metabolite of Formula I", "setting": "[4]; plasma and urine after PO 20 mg/kg, not quantified", "value": "detected in plasma and urine"}, {"measurement": "Water pH Post-24 h", "setting": "[5]; deionized water, 24 h, ambient temperature", "value": 5.63}, {"measurement": "XRPD Result", "setting": "[5]; solid after 24 h in deionized water", "value": "Free Base"}]}]}
